Some test systems named below: NCI/ADR-RES; HOP-62; OVCAR-4; SNB-19; DU-145; K562; HCC 2998; NCI-H23; SF-268; EKVX; SW-620; M14; U-251; SF-295; UO-31; HOP-92; SNB-75; A498; SK-MEL-2; MOLT-4.
Common to all, as to test: NCI-60 cell line screen, 48 h

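Step 1: Grow cells in 96-well plates. Step 2: Expose to compound for 48 hours at 5 concentrations. Step 3: Interpolate endpoints linearly; if unreached, use highest concentration. Here, GI50 denotes the concentration required for 50% inhibition of growth.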 Active and inactive are the calls of the source. Cut-off read from the data, not from the text of the source: active = GI50 up to about 1.1 µM and inactive = higher. Where only a bound is given, the exact number is not on record here.

For the molecule `NCCSCCc1ccccc1`, the GI50 with NCI/ADR-RES, in the test with HOP-62, in the test on OVCAR-4, in the test on SNB-19, with DU-145 and in the test on K562 was > 100 µM (inactive) throughout. In addition, the GI50 in the test with HCC 2998, with NCI-H23, with SF-268, in the test with EKVX, in the test on SW-620 and in the test on M14 was > 100 µM (inactive) each time. The GI50 is > 100 µM (inactive) in the test with U-251; > 100 µM (inactive) in the test with SF-295; > 100 µM (inactive) in the test on UO-31; 72.1 µM (inactive) with HOP-92; > 100 µM (inactive) in the test on SNB-75; > 100 µM (inactive) with A498. Further, in the test with SK-MEL-2, the GI50 was > 100 µM (inactive).
For the molecule `CC1(C)C/C(=N/O)c2c(nc3ccc4ccccc4c3c2-c2ccc(Cl)cc2)C1`, the GI50 in the test on NCI/ADR-RES is 17.5 µM (inactive); in the test with HOP-62, 23.2 µM (inactive); in the test with OVCAR-4, 13.8 µM (inactive); with SNB-19, 35 µM (inactive); in the test with DU-145, 16.5 µM (inactive); in the test on K562, 19 µM (inactive). Moreover, the GI50 with HCC 2998 was 21.6 µM (inactive); in the test on NCI-H23, 22 µM (inactive); with SF-268, 14.2 µM (inactive); in the test on MOLT-4, 18.2 µM (inactive); in the test with EKVX it was 15.7 µM (inactive); with SW-620 it was 18.3 µM (inactive). Moreover, the GI50 is 33.5 µM (inactive) in the test with M14; 11.5 µM (inactive) with U-251; 10.9 µM (inactive) in the test with SF-295; 16.8 µM (inactive) with UO-31; 18.3 µM (inactive) in the test with HOP-92; 16.2 µM (inactive) with SNB-75. Further, the GI50 in the test with A498 was 19.5 µM (inactive); in the test on SK-MEL-2, 43.7 µM (inactive).
For the molecule `CC1OC(O[C@@H]2OC=C(C=O)[C@@]3(O)CC[C@H](C)[C@@H]23)C(O)C(O)C1O` (stereo not given in full), the GI50 with NCI/ADR-RES, with HOP-62, in the test with OVCAR-4, in the test on SNB-19, with DU-145 and with K562 was > 100 µM (inactive) throughout. Further, the GI50 with HCC 2998, with NCI-H23, in the test with SF-268, in the test with MOLT-4, in the test on EKVX and with SW-620 was > 100 µM (inactive) in each case. For the same molecule, the GI50 in the test with M14, in the test on U-251, in the test on SF-295, with UO-31, with HOP-92 and in the test on SNB-75 was > 100 µM (inactive) in each case. Besides, the GI50 with A498 and in the test on SK-MEL-2 was > 100 µM (inactive) in each case.
`Cn1c(SCc2ccc(F)cc2)nnc1C12CC3CC(CC(C3)C1)C2`: the GI50 with NCI/ADR-RES is 28.9 µM (inactive); in the test with HOP-62, 47.3 µM (inactive); in the test on OVCAR-4, 35.2 µM (inactive); in the test with SNB-19, 53.5 µM (inactive); in the test on DU-145, 52 µM (inactive); in the test with K562 it was 24.2 µM (inactive). Also, the GI50 in the test with HCC 2998 was 39.2 µM (inactive); in the test on NCI-H23, 50.6 µM (inactive); in the test with SF-268, 40.4 µM (inactive); in the test on MOLT-4 it was 13.6 µM (inactive); in the test on EKVX it was 37.1 µM (inactive); with SW-620 it was 58.7 µM (inactive). Moreover, the GI50 in the test with M14 was 24.2 µM (inactive); in the test on U-251, 35.2 µM (inactive); in the test on SF-295, 50.8 µM (inactive); in the test on UO-31, 34.4 µM (inactive); in the test with HOP-92, 25 µM (inactive); with SNB-75, 37.8 µM (inactive). Besides, the results for the GI50 with A498 and in the test on SK-MEL-2 were 11 µM (inactive) and 40.6 µM (inactive), respectively.
Turning to `CN1CCN(CCCNN)CC1`, the GI50 with NCI/ADR-RES was > 100 µM (inactive); with HOP-62, > 100 µM (inactive); in the test on OVCAR-4, > 100 µM (inactive); with SNB-19, > 100 µM (inactive); in the test with DU-145, > 100 µM (inactive); with K562, 1.87 µM (inactive). The GI50 was > 100 µM (inactive) with HCC 2998; > 100 µM (inactive) in the test on NCI-H23; > 100 µM (inactive) with SF-268; 0.305 µM (active) in the test on MOLT-4; > 100 µM (inactive) with EKVX; > 100 µM (inactive) in the test with SW-620. The GI50 with M14, with U-251, in the test with SF-295, with UO-31, with HOP-92 and in the test on SNB-75 was > 100 µM (inactive) in each case. Besides, the GI50 with A498 and in the test on SK-MEL-2 was > 100 µM (inactive) in each case.
Regarding `O=C(Nc1sccc1S(=O)(=O)c1ccc(Cl)cc1)C(F)(F)F`, the GI50 is 18.4 µM (inactive) in the test on NCI/ADR-RES; 37.4 µM (inactive) in the test on HOP-62; 33.7 µM (inactive) in the test with OVCAR-4; > 100 µM (inactive) with SNB-19; 31.6 µM (inactive) with DU-145; 11.5 µM (inactive) in the test with K562. The GI50 was 22.9 µM (inactive) in the test on HCC 2998; 24.1 µM (inactive) in the test with NCI-H23; 17.5 µM (inactive) in the test on SF-268; 15 µM (inactive) with MOLT-4; 40.7 µM (inactive) in the test on EKVX; 53.2 µM (inactive) in the test with SW-620. The GI50 in the test with M14 was 38.3 µM (inactive); with U-251, 34.6 µM (inactive); in the test with SF-295 it was 26.3 µM (inactive); with UO-31 it was 25.1 µM (inactive); with HOP-92 it was 23.6 µM (inactive); with SNB-75, 20.9 µM (inactive). In addition, the values for the GI50 in the test on A498 and with SK-MEL-2 were 33.9 µM (inactive) and 13.5 µM (inactive), respectively.
For `NC(=O)C(=CNC(=S)Nc1cccc(C(F)(F)F)c1)C(N)=O`, the GI50 in the test on NCI/ADR-RES, in the test with HOP-62, in the test with OVCAR-4, in the test on SNB-19, in the test on DU-145 and with K562 was > 100 µM (inactive) in each case. The GI50 with HCC 2998, with NCI-H23, with SF-268, with MOLT-4, with SW-620 and in the test with M14 was > 100 µM (inactive) throughout. The GI50 in the test with U-251 was > 100 µM (inactive); in the test with SF-295, > 100 µM (inactive); with UO-31 it was > 100 µM (inactive); in the test with HOP-92, > 100 µM (inactive); in the test on SNB-75, 51.9 µM (inactive); in the test on A498 it was > 100 µM (inactive). The GI50 in the test on SK-MEL-2 was > 100 µM (inactive).
On to `COc1c2c(cc3c1C1(O)Cc4ccc5c(c4C[N+]1(C)CC3)OCO5)OCO2` (stereo not given), for which the GI50 in the test with NCI/ADR-RES was > 100 µM (inactive); in the test with HOP-62, > 100 µM (inactive); in the test with OVCAR-4, > 100 µM (inactive); with SNB-19 it was > 100 µM (inactive); with DU-145, > 100 µM (inactive); with K562 it was 37.3 µM (inactive). Moreover, the GI50 with HCC 2998 is 33 µM (inactive); with NCI-H23 it was > 100 µM (inactive); in the test with SF-268, > 100 µM (inactive); with MOLT-4 it was 50.8 µM (inactive); in the test on EKVX, 87.3 µM (inactive); with SW-620, > 100 µM (inactive). In addition, the GI50 in the test on M14, in the test on U-251, in the test on SF-295, with HOP-92, with SNB-75 and in the test with A498 was > 100 µM (inactive) throughout. Moreover, in the test on SK-MEL-2, the GI50 was > 100 µM (inactive).
On to `O=[N+]([O-])c1ccc2c(/N=N/c3ccc4ccccc4c3O)c(O)cc(S(=O)(=O)O)c2c1`, for which the GI50 is 11.1 µM (inactive) with NCI/ADR-RES; 24.9 µM (inactive) in the test on HOP-62; 9.64 µM (inactive) in the test with OVCAR-4; 13.2 µM (inactive) with SNB-19; 18.7 µM (inactive) in the test with DU-145; 20.6 µM (inactive) in the test with K562. The GI50 in the test on HCC 2998 was 39.5 µM (inactive); in the test on NCI-H23, 31.3 µM (inactive); in the test with SF-268, 8.89 µM (inactive); in the test with MOLT-4 it was 3.98 µM (inactive); in the test on EKVX it was 14.7 µM (inactive); in the test with SW-620 it was 18.7 µM (inactive). The GI50 with M14 is 6.76 µM (inactive); in the test with U-251 it was 7.41 µM (inactive); with SF-295, 32 µM (inactive); with UO-31 it was 5.78 µM (inactive); in the test with HOP-92 it was 21.6 µM (inactive); with SNB-75 it was 26.7 µM (inactive). The GI50 with A498 is 35.3 µM (inactive); in the test on SK-MEL-2, 23 µM (inactive).
Turning to `Cc1ccc2c(O)cc(-c3ccc4ccccc4c3)nc2n1`, the GI50 in the test on NCI/ADR-RES is 4.58 µM (inactive); in the test on HOP-62 it was 7.13 µM (inactive); with OVCAR-4, 6.25 µM (inactive); in the test on SNB-19, 9.48 µM (inactive); in the test with DU-145, 15.5 µM (inactive); in the test with K562, 3.41 µM (inactive). The GI50 with HCC 2998 was 10.8 µM (inactive); with NCI-H23, 4.41 µM (inactive); in the test on SF-268 it was 6.9 µM (inactive); in the test with MOLT-4, 4.45 µM (inactive); in the test on EKVX, 5.96 µM (inactive); with SW-620, 2.8 µM (inactive). Further, the GI50 with M14 is 8.89 µM (inactive); in the test with UO-31 it was 8 µM (inactive); in the test on HOP-92 it was 1.5 µM (inactive); in the test on SNB-75 it was 2.75 µM (inactive); in the test on A498, 3.4 µM (inactive); in the test on SK-MEL-2, 5.97 µM (inactive).
